Reference: patent US11987648B2, “Cyclohexapeptides as selective somatostatin SST5 receptor agonists” (Heptares Therapeutics Limited, priority 2018, dated 2024)
*1 amine or outer side, *2 acyl side, *3 side chain or, on linkers, in order; H or OH if unused. Where a SMILES comes first, the peptide text is derived from it. Side-chain parts run from the residue outwards. [ ]: non-standard residue; d: D form. The star is where a group is joined. Ala(piperidin-4-yl) = O=C([C@H](CC1CCN([*:3])CC1)N[*:1])[*:2]; dTrp(4-OMe) = COc1cccc2[nH]cc(C[C@@H](N)C(=O)O)c12; X8 = COc1cc2c(cc1OC)CN([*:1])[C@H](C(=O)[*:2])C2; dTrp(4-Me) = Cc1cccc2[nH]cc(C[C@@H](N)C(=O)O)c12; Ala(piperazin-1-yl) = N[C@@H](CN1CCNCC1)C(=O)O; Tyr(Ph) = N[C@@H](Cc1ccc(Oc2ccccc2)cc1)C(=O)O; Morpholine(3S-CO) = O=C(O)[C@@H]1COCCN1; Ethylenediamine = C(CN[*:2])N[*:1]; d(hPhe) = N[C@H](CCc1ccccc1)C(=O)O; Hyp = O=C(O)[C@@H]1C[C@@H](O)CN1; NMeF = CN[C@@H](Cc1ccccc1)C(=O)O; hPhe = N[C@@H](CCc1ccccc1)C(=O)O; 3Pal = N[C@@H](Cc1cccnc1)C(=O)O; Tic = O=C(O)[C@@H]1Cc2ccccc2CN1; Benzyl(4-Cl) = Clc1ccc(C*)cc1; Phg = N[C@H](C(=O)O)c1ccccc1; X9 = O=C(C1CNCCN1[*:1])[*:2]; Pip = O=C(O)[C@@H]1CCCCN1; CO = O=C([*:1])[*:2]; Bn = c1ccc(C*)cc1

Key:
SST2 = SST2 (Homo sapiens, UniProt P30874); assay: Hit Hunter cAMP XS+ assay, SST2 activation via Gi (reduction of forskolin-stimulated cAMP); type: cell-based; conditions: for Emax: read-out: SST2 (EMax); for EC50: reduction of forskolin-stimulated cAMP, 4-parameter logistic fit, read-out: SST2 pEC50 (converted)
Sequence of SST2 (P30874 whole entry, the tested form may be a part): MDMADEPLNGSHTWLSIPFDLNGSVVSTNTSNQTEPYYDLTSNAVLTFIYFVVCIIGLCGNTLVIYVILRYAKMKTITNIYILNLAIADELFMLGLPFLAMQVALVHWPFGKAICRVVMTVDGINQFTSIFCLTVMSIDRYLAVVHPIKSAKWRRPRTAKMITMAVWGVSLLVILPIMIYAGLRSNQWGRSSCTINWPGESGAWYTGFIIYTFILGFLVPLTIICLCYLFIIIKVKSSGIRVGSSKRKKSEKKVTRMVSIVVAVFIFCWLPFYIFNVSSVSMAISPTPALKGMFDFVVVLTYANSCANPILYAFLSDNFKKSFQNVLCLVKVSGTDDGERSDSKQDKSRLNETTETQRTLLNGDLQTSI
How it was run: (§1)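 Cells (10,000/well) incubated 30 min at 37 °C with compound under EC80 forskolin ([…] for SST2, 15 μM for SST5). cAMP reduction was detected by enzyme-fragment complementation chemiluminescence after 60 min and 180 min room-temperature reagent steps. Potency and efficacy were both measured.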

SST5 = SST5 (Homo sapiens, UniProt P35346); assay: Hit Hunter cAMP XS+ assay, SST5 activation via Gi (reduction of forskolin-stimulated cAMP); type: cell-based; conditions: for Emax: read-out: SST5 (EMax); for EC50: reduction of forskolin-stimulated cAMP, 4-parameter logistic fit, read-out: SST5 pEC50 (converted); for SST5/2 Selectivity: selectivity for SST5 over SST2
Sequence of SST5 (P35346 whole entry): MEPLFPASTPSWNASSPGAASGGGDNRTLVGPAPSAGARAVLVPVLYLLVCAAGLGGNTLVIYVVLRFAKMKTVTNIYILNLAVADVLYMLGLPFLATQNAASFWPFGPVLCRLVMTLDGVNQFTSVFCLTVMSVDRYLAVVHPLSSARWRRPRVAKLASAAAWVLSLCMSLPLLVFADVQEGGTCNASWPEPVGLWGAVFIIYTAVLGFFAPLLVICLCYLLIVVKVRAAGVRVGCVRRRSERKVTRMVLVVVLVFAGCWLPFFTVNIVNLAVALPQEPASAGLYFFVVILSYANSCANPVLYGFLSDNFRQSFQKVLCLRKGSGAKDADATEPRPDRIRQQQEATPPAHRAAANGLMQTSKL
How it was run: as §1

**Q.** `COc1ccc(C[C@@H]2NC(=O)[C@H](Cc3ccc(OCc4ccccc4)cc3)NC(=O)[C@H](CC3CCNCC3)NC(=O)[C@@H](Cc3c[nH]c4ccccc34)NC(=O)[C@@H](CCc3ccccc3)NC(=O)[C@@H]3C[C@@H](OC(=O)NCCN)CN3C2=O)cc1` [Example 55] (cyclo([Hyp]([CO-Ethylenediamine])[d(hPhe)][dW][Ala(piperidin-4-yl)]Y(Bn)Y(Me))) was tested. Which Emax (SST2) did it give?
**A.** 85.9%

**Q.** What about the EC50 (SST2) of the same molecule?
**A.** > 10000 nM

**Q.** And the Emax (SST5)?
**A.** 106%

**Q.** And the EC50 (SST5)?
**A.** 10 nM

**Q.** What about the “SST5/2 Selectivity” value (SST5) of the same molecule?
**A.** 1120.0

**Q.** `CN1C(=O)[C@H](Cc2ccc(OCc3ccccc3)cc2)NC(=O)[C@H](CN2CCNCC2)NC(=O)[C@@H](Cc2c[nH]c3ccccc23)NC(=O)[C@H](CCc2ccccc2)NC(=O)[C@@H]2C[C@@H](OC(=O)NCCN)CN2C(=O)[C@@H]1Cc1ccccc1` [Example 57] (cyclo([Hyp]([CO-Ethylenediamine])[hPhe][dW][Ala(piperazin-1-yl)]Y(Bn)[NMeF])) was tested. Which Emax (SST2) did it give?
**A.** 96.5%

**Q.** What about the EC50 (SST2) of the same molecule?
**A.** 200 nM

**Q.** What about the Emax (SST5) of the same molecule?
**A.** 102%

**Q.** What about the EC50 (SST5) of the same molecule?
**A.** 0.501 nM

**Q.** What about the “SST5/2 Selectivity” value (SST5) of the same molecule?
**A.** 404.6

**Q.** What does the source list for `NCCNC(=O)O[C@@H]1C[C@H]2C(=O)N[C@H](CCc3ccccc3)C(=O)N[C@H](Cc3c[nH]c4ccccc34)C(=O)N[C@@H](CN3CCNCC3)C(=O)N[C@@H](Cc3ccc(OCc4ccc(Cl)cc4)cc3)C(=O)N[C@@H](Cc3cccnc3)C(=O)N2C1` [Example 58] (cyclo([3Pal][Hyp]([CO-Ethylenediamine])[d(hPhe)][dW][Ala(piperazin-1-yl)]Y(Benzyl(4-Cl))))?
**A.** Emax (SST2): 42.9%; EC50 (SST2): > 10000 nM; Emax (SST5): 103%; EC50 (SST5): 15.8 nM; SST5/2 Selectivity (SST5): 695.7

**Q.** `NCCNC(=O)O[C@@H]1C[C@H]2C(=O)N[C@@H](CCc3ccccc3)C(=O)N[C@H](Cc3c[nH]c4ccccc34)C(=O)N[C@@H](CN3CCNCC3)C(=O)N[C@@H](Cc3ccc(OCc4ccc(Cl)cc4)cc3)C(=O)N[C@@H](Cc3cccnc3)C(=O)N2C1` [Example 59] (cyclo([3Pal][Hyp]([CO-Ethylenediamine])[hPhe][dW][Ala(piperazin-1-yl)]Y(Benzyl(4-Cl)))) was tested. Which Emax (SST2) did it give?
**A.** 95.7%

**Q.** And the EC50 (SST2)?
**A.** 501 nM

**Q.** What about the Emax (SST5) of the same molecule?
**A.** 106%

**Q.** And the EC50 (SST5)?
**A.** 0.631 nM

**Q.** What about the “SST5/2 Selectivity” value (SST5) of the same molecule?
**A.** 738.9

**Q.** `Cc1cccc2[nH]cc(C[C@H]3NC(=O)[C@H](CCc4ccccc4)NC(=O)[C@@H]4C[C@@H](OC(=O)NCCN)CN4C(=O)[C@H](Cc4cccnc4)NC(=O)[C@H](Cc4ccc(OCc5ccccc5)cc4)NC(=O)[C@H](CC4CCNCC4)NC3=O)c12` [Example 60] (cyclo([3Pal][Hyp]([CO-Ethylenediamine])[hPhe][dTrp(4-Me)][Ala(piperidin-4-yl)]Y(Bn))) was tested. Which Emax (SST2) did it give?
**A.** 99.8%

**Q.** And the EC50 (SST2)?
**A.** 126 nM

**Q.** And the Emax (SST5)?
**A.** 104%

**Q.** What about the EC50 (SST5) of the same molecule?
**A.** 1 nM

**Q.** What about the “SST5/2 Selectivity” value (SST5) of the same molecule?
**A.** 129.4

**Q.** `O=C1N[C@@H](Cc2ccc(OCc3ccccc3)cc2)C(=O)N2Cc3ccccc3C[C@H]2C(=O)N2CCOC[C@H]2C(=O)N[C@H](CCc2ccccc2)C(=O)N[C@H](Cc2c[nH]c3ccccc23)C(=O)N[C@H]1CN1CCNCC1` [Example 61] (cyclo([Tic][Morpholine(3S-CO)][d(hPhe)][dW][Ala(piperazin-1-yl)]Y(Bn))) was tested. Which Emax (SST2) did it give?
**A.** 23.4%

**Q.** And the EC50 (SST2)?
**A.** > 10000 nM

**Q.** And the Emax (SST5)?
**A.** 103%

**Q.** And the EC50 (SST5)?
**A.** 31.6 nM

**Q.** And the “SST5/2 Selectivity” value (SST5)?
**A.** 291.4

**Q.** Which results are given for `O=C1N[C@@H](Cc2ccc(OCc3ccccc3)cc2)C(=O)N2Cc3ccccc3C[C@H]2C(=O)N2CCOC[C@H]2C(=O)N[C@H](CCc2ccccc2)C(=O)N[C@H](Cc2c[nH]c3ccccc23)C(=O)N[C@H]1CC1CCNCC1` [Example 62] (cyclo([Tic][Morpholine(3S-CO)][d(hPhe)][dW][Ala(piperidin-4-yl)]Y(Bn)))?
**A.** Emax (SST2): 99.4%; EC50 (SST2): 631 nM; Emax (SST5): 102%; EC50 (SST5): 3.16 nM; SST5/2 Selectivity (SST5): 224.3

**Q.** With `COc1cccc2[nH]cc(C[C@H]3NC(=O)[C@@H](CCc4ccccc4)NC(=O)[C@@H]4COCCN4C(=O)[C@@H]4Cc5ccccc5CN4C(=O)[C@H](Cc4ccc(OCc5ccccc5)cc4)NC(=O)[C@H](CN4CCNCC4)NC3=O)c12` [Example 63] (cyclo([Tic][Morpholine(3S-CO)][d(hPhe)][dTrp(4-OMe)][Ala(piperazin-1-yl)]Y(Bn))) as the molecule, how does the Emax (SST2) read?
**A.** 102%

**Q.** And the EC50 (SST2)?
**A.** 63.1 nM

**Q.** What about the Emax (SST5) of the same molecule?
**A.** 104%

**Q.** What about the EC50 (SST5) of the same molecule?
**A.** 2.51 nM

**Q.** And the “SST5/2 Selectivity” value (SST5)?
**A.** 24.4

**Q.** With `COc1cccc2[nH]cc(C[C@H]3NC(=O)[C@H](c4ccccc4)NC(=O)[C@@H]4C[C@@H](OC(=O)NCCN)CN4C(=O)[C@H](Cc4ccccc4)NC(=O)[C@H](Cc4ccc(OCc5ccccc5)cc4)NC(=O)[C@H](CN4CCNCC4)NC3=O)c12` [Example 64] (cyclo(F[Hyp]([CO-Ethylenediamine])[Phg][dTrp(4-OMe)][Ala(piperazin-1-yl)]Y(Bn))) as the molecule, how does the Emax (SST2) read?
**A.** 100%

**Q.** And the EC50 (SST2)?
**A.** 100 nM

**Q.** And the Emax (SST5)?
**A.** 104%

**Q.** What about the EC50 (SST5) of the same molecule?
**A.** 15.8 nM

**Q.** And the “SST5/2 Selectivity” value (SST5)?
**A.** 5.5

**Q.** Which results are given for `O=C1N[C@@H](CCc2ccccc2)C(=O)N[C@H](Cc2c[nH]c3ccccc23)C(=O)N[C@@H](CN2CCNCC2)C(=O)N[C@@H](Cc2ccc(OCc3ccccc3)cc2)C(=O)N2Cc3ccccc3C[C@H]2C(=O)N2CCNCC12` (stereo partly shown) [Example 65] (cyclo([Tic][X9][hPhe][dW][Ala(piperazin-1-yl)]Y(Bn)))?
**A.** Emax (SST2): 91.8%; EC50 (SST2): 1000 nM; Emax (SST5): 99.4%; EC50 (SST5): 0.398 nM; SST5/2 Selectivity (SST5): 2293.7

**Q.** `COc1cc2c(cc1OC)CN1C(=O)[C@H](Cc3ccc(OCc4ccccc4)cc3)NC(=O)[C@H](CC3CCNCC3)NC(=O)[C@@H](Cc3c[nH]c4ccccc34)NC(=O)[C@H](CCc3ccccc3)NC(=O)[C@@H]3C[C@@H](OC(=O)NCCN)CN3C(=O)[C@@H]1C2` [Example 66] (cyclo([Hyp]([CO-Ethylenediamine])[hPhe][dW][Ala(piperidin-4-yl)]Y(Bn)[X8])) was tested. Which Emax (SST2) did it give?
**A.** 51.1%

**Q.** And the EC50 (SST2)?
**A.** > 10000 nM

**Q.** And the Emax (SST5)?
**A.** 103%

**Q.** What about the EC50 (SST5) of the same molecule?
**A.** 1.26 nM

**Q.** And the “SST5/2 Selectivity” value (SST5)?
**A.** 7454.5

**Q.** How did the Emax (SST2) turn out when `NCCNC(=O)O[C@@H]1C[C@H]2C(=O)N[C@@H](CCc3ccccc3)C(=O)N[C@H](Cc3c[nH]c4ccccc34)C(=O)N[C@@H](CC3CCNCC3)C(=O)N[C@@H](Cc3ccc(Oc4ccccc4)cc3)C(=O)N[C@@H](Cc3cccnc3)C(=O)N2C1` [Example 67] (cyclo([3Pal][Hyp]([CO-Ethylenediamine])[hPhe][dW][Ala(piperidin-4-yl)][Tyr(Ph)])) was run?
**A.** 98.3%

**Q.** What about the EC50 (SST2) of the same molecule?
**A.** 398 nM

**Q.** And the Emax (SST5)?
**A.** 104%

**Q.** What about the EC50 (SST5) of the same molecule?
**A.** 15.8 nM

**Q.** And the “SST5/2 Selectivity” value (SST5)?
**A.** 25.7

**Q.** What does the source list for `COc1cccc2[nH]cc(C[C@H]3NC(=O)[C@H](CCc4ccccc4)NC(=O)[C@@H]4COCCN4C(=O)[C@@H]4Cc5ccccc5CN4C(=O)[C@H](Cc4ccc(OCc5ccccc5)cc4)NC(=O)[C@H](CN4CCNCC4)NC3=O)c12` [Example 68] (cyclo([Tic][Morpholine(3S-CO)][hPhe][dTrp(4-OMe)][Ala(piperazin-1-yl)]Y(Bn)))?
**A.** Emax (SST2): 99.1%; EC50 (SST2): 251 nM; Emax (SST5): 98.8%; EC50 (SST5): 0.316 nM; SST5/2 Selectivity (SST5): 791.6

**Q.** What does the source list for `NCCNC(=O)O[C@@H]1C[C@H]2C(=O)N[C@@H](CCc3ccccc3)C(=O)N[C@H](Cc3c[nH]c4ccccc34)C(=O)N[C@@H](CN3CCNCC3)C(=O)N[C@@H](Cc3ccc(OCc4ccccc4)cc3)C(=O)N3CCCC[C@H]3C(=O)N2C1` [Example 69] (cyclo([Hyp]([CO-Ethylenediamine])[hPhe][dW][Ala(piperazin-1-yl)]Y(Bn)[Pip]))?
**A.** Emax (SST2): 69%; EC50 (SST2): > 10000 nM; Emax (SST5): 103%; EC50 (SST5): 79.4 nM; SST5/2 Selectivity (SST5): 124.3
